Consider six compounds from patent publication US8242168B2, “Use of phthalide derivatives for the treatment of type 2 diabetes mellitus” (DSM IP Assets B.V., priority 2003, dated 2012).

Experiment [1] concerns C3H10T1/2 cells. Briefly: Glucose uptake of adipocytes (radioactive 2-deoxyglucose). The experiment is classed as cell-based. The conditions noted are these: for Basal glucose uptake / Basal glucose uptake (result in words): 48-h treatment; for Basal glucose uptake: absence of insulin, ± SEM; for Basal glucose uptake (result in words): different concentrations. As for the experimental part: C3H10T1/2 cells (ATCC CCL-226) were grown for 5 days to confluence in DMEM supplemented with 10% FBS medium and induced with a mixture of insulin, dexamethasone and 3-isobutyl-1-methylxanthine to differentiate into adipocytes. Nine days after the beginning of induction, cells were treated for 48-h with ligustilide at different concentrations as shown in Table 2. Glucose uptake was determined using radioactive 2-deoxyglucose (10 μM 2-DG in HBS+0.5 μCi/ml of 3[H]-2-DG), measuring glucose uptake in the absence of insulin. Basal glucose uptake was increased by 48-h treatment with ligustilide in a dose-dependent manner (Table 2). This increase in glucose uptake was specific, since the increase was not observed in the presence of phloretin, a known inhibitor of specific glucose uptake.
Growing, induction and treatment of C3H10T1/2 cells were exactly as described in Example 1, with die exception that 3-butylphthalide at different concentrations was used instead of ligustilide.
Growing, induction and treatment of C3H10T1/2 cells were exactly as described in Example 1, with the exception that 3-butylidenphthalide at different concentrations was used instead of ligustilide.

The subject of experiment [2] is C3H10T1/2 cells. Briefly: Differentiation of adipocytes (oil Red O staining). As to conditions: for Differentiation of the cells into adipocytes versus insulin alone (result in words): co-treatment with insulin, 10 days; for Mean OD ± SEM (oil Red O, 540 nm): 10-day treatment. In kind it is cell-based.
Experimental: After the 10-day treatment, the cells were stained with oil Red O as follows: cells were washed 2× in PBS and fixed in 10% formalin at room temperature for 1 h. After removal of formalin, 200 μl of oil Red O staining solution (3:2 mixture of 0.5% w/v oil Red O stock solution and water) was applied to each well. The cells were incubated for 20 min at room temperature, washed twice in 2×PBS and incubated for 10 min with 300 μl of isopropanol/well for oil Red O extraction. Quantification of oil Red O was determined by measuring absorbance at 540 nm (mean OD).
The measurement of adipocyte differentiation using the oil Red O assay was performed as described in Example 4.
Experiment [3] concerns C57BLKS/J db/db mice. Briefly: Blood glucose and oral glucose tolerance test in db/db mice. In kind it is in vivo. The protocol: The efficacy of ligustilide on glucose tolerance was tested in a 7-day study in C57BLKS/J db/db mice (n=10/group), a model of late type 2 diabetes mellitus with severe hyperglycemia which is widely used to determine the efficacy of PPARγ ligands.
Male db/db mice were obtained from Jackson Laboratory (Bar Harbor, Me., USA). Adult mice aged 12 weeks were used in the experiment. Mice were housed individually in plastic cages with bedding and allowed free access to standard rodent food and tap water. The animal rooms were controlled for temperature (24° C.), humidity (55%), and light (12-h light-dark cycle). The animals were randomized in two groups and ligustilide was administered orally to one of the groups for 7 days at a dose of 200 mg/kg BW/day. After 7 days of treatment the concentration of glucose was determined in blood from fed animals, i.e., animals which were not restricted from food. After a period of 5 days of treatment an oral glucose tolerance test (OGTT) was performed. For the OGTT mice were fasted overnight and then a 1-g glucose/kg BW solution was orally administered. […] Blood glucose was measured by a glucose analyzer (Glucotrend Premium, Roche Diagnostics, Rotkreuz, Switzerland).

Setting [4] is: insulin 1 × 10^−7 M + compound 1 × 10^−4 M.
Where [5] appears, read: insulin 1 × 10^−7 M + compound 1 × 10^−5 M.

“And” between values parts separate entries of the source, which are not always exact repeats. Identical values can stand only once.

As to `CCC/C=C1\OC(=O)c2ccccc21` [3-Butylidenephthalide], the Basal glucose uptake in experiment [1] (1 × 10^−4 M) is given as 137.3 ± 8.5 % of control; in experiment [1] (1 × 10^−5 M) it was 123.8 ± 8.5 % of control; in experiment [1] (1 × 10^−6 M), 107.0 ± 8.5 % of control. The “Basal glucose uptake (result in words)” value in experiment [1] is listed as “increase”. For the same compound, in experiment [2], the “Differentiation of the cells into adipocytes versus insulin alone (result in words)” value (“Differentiation” for short) is listed as “higher differentiation”. Further, the “Mean OD ± SEM (oil Red O, 540 nm)” value in experiment [2] (setting [4]) was 0.28 ± 0.01; in experiment [2] (setting [5]), 0.15 ± 0.01; in experiment [2] (insulin 1 × 10^−7 M + compound 5 × 10^−5 M), 0.22 ± 0.01.

On to `CCCC[C@@H]1OC(=O)c2ccccc21` (stereo in doubt) [3-Butylphthalide], for which the Basal glucose uptake in experiment [1] (1 × 10^−4 M) was 136.7 ± 8.5 % of control; in experiment [1] (1 × 10^−5 M) it was 97.5 ± 8.5 % of control; in experiment [1] (1 × 10^−6 M), 99.3 ± 8.5 % of control. The “Basal glucose uptake (result in words)” value in experiment [1] is given as “increase”. Further, in experiment [2], the “Differentiation” value is reported as “higher differentiation”. Further, the “Mean OD ± SEM (oil Red O, 540 nm)” value in experiment [2] (setting [5]) came out at 0.21 ± 0.01.

On to `CCCC[C@@H]1OC(=O)C2=CCCCC21` (some centres unmarked) [Sedanolide], for which, in experiment [2], the “Differentiation” value is on record as “higher differentiation”. Further, the “Mean OD ± SEM (oil Red O, 540 nm)” value amounted to 0.18 ± 0.01 in experiment [2] (setting [4]) and 0.15 ± 0.01 in experiment [2] (setting [5]).

With `CCC/C=C1\OC(=O)C2=C1CCC=C2` [Ligustilide], the “Glucose AUC of an OGTT (result in words)” value in experiment [3] (1 g glucose/kg body weight, day 5) is reported as “significantly reduced”. For the same compound, in experiment [3] (OGTT on day 5, 15-180 min), the “Blood glucose levels during the OGTT versus control (result in words)” value is given as “lower at all time points”. The “Glucose levels of fasted animals versus untreated control (result in words)” value in experiment [3] (after 5 days of treatment, overnight fasting) is given as “significantly decreased”. Further, the “Glucose levels of fed animals (result in words)” value in experiment [3] (after 7 days of treatment, 200 mg/kg BW/day) was “significantly lowered”. The “Blood Glucose Fasted” value in experiment [3] (db/db mice, 200 mg/kg BW/day orally, after 5 days, overnight fasting) worked out at 196 mg/dL. Moreover, in experiment [3] (db/db mice, 200 mg/kg BW/day orally, after 7 days, fed animals), the “Blood Glucose Fed” value is 388 mg/dL. The “Glucose AUC (OGTT)” value in experiment [3] (db/db mice, 200 mg/kg BW/day orally, day 5, OGTT 1 g glucose/kg BW, 0-180 min) amounted to 51039. For the same compound, the Basal glucose uptake in experiment [1] (1 × 10^−4 M) is 175.0 ± 24.4 % of control; in experiment [1] (2 × 10^−4 M) it was 294.4 ± 24.4 % of control; in experiment [1] (5 × 10^−5 M), 131.8 ± 24.4 % of control; in experiment [1] (5 × 10^−6 M) it was 105.9 ± 24.4 % of control. For the same compound, in experiment [1], the “Basal glucose uptake (result in words)” value was “increased”. The “Increase in glucose uptake in the presence of phloretin” value in experiment [1] (phloretin, inhibitor of specific glucose uptake) is “not observed”. For the same compound, in experiment [2], the “Differentiation” value was “higher differentiation”. Also, the “Mean OD ± SEM (oil Red O, 540 nm)” value in experiment [2] (insulin 2 × 10^−7 M + compound 5 × 10^−6 M) turned out to be 1.71 ± 0.34.

In the case of `CC1(COc2ccc(CC3SC(=O)NC3=O)cc2)CCCCC1` (centres unmarked) [Ciglitazone, reference compound], the Basal glucose uptake in experiment [1] (5 × 10^−5 M) is listed as 381.5 ± 24.4 % of control.

Insulin [reference compound]: the “Mean OD ± SEM (oil Red O, 540 nm)” value in experiment [2] (insulin 1 × 10^−7 M alone) was 0.14 ± 0.01 and 0.16 ± 0.01; in experiment [2] (insulin 2 × 10^−7 M alone (negative control)) it was 0.687 ± 0.34.
